Data reported in the supplement of paper PMC5908809.

Key:
[1] = tested on: normal NK cells expanded with K562-aAPC; assay: drug sensitivity score (DSS) (DSS units); higher = more sensitive; extreme values may be limits of the assay; conditions: 72 h; IL-2 2.5 ng/mL
Description: (§1)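 Drug sensitivity and resistance testing on K562-aAPC-expanded normal NK cells: 5 concentrations (10-fold steps over a 10,000-fold range), 72 h at 37 °C, viability by CellTiter-Glo normalised to DMSO and benzethonium chloride controls; DSS from the fitted curve.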

NK-92 (IL-2 2.5 ng/mL) [2] = assay: as above; conditions: 72 h
[3] = tested on: normal primary NK cells, pool 1 (3 donors), resting (IL-2 0 ng/mL); assay: as above; conditions: 72 h
[4] = tested on: normal primary NK cells, pool 2 (3 donors) (IL-2 2.5 ng/mL); assay: as above; conditions: 72 h
[5] = tested on: normal primary NK cells, pool 3 (3 donors) (IL-2 2.5 ng/mL); assay: as above; conditions: 72 h
NK-YS (IL-2 2.5 ng/mL) [6] = assay: as above; conditions: 72 h
SNK-6 (IL-2 2.5 ng/mL) [7] = assay: as above; conditions: 72 h
IMC-1 (IL-2 20 ng/mL) [8] = assay: as above; conditions: 72 h
KHYG-1 (IL-2 2.5 ng/mL) [9] = assay: as above; conditions: 72 h
[10] = tested on: normal primary NK cells, pool 1 (3 donors) (IL-2 2.5 ng/mL); assay: as above; conditions: 72 h
NKL (IL-2 2.5 ng/mL) [11] = assay: as above; conditions: 72 h
DERL-7 (IL-2 2.5 ng/mL) [12] = assay: as above; conditions: 72 h
YT (IL-2 2.5 ng/mL) [13] = assay: as above; conditions: 72 h
KAI3 (IL-2 2.5 ng/mL) [14] = assay: as above; conditions: 72 h
NK-92 (IL-2 2.5 ng/mL) [15] = assay: percent inhibition of viability; higher = more inhibition; conditions: 72 h
[16] = tested on: normal primary NK cells, pool 1 (3 donors), resting (IL-2 0 ng/mL); assay: as above; conditions: 72 h
[17] = tested on: normal primary NK cells, pool 2 (3 donors) (IL-2 2.5 ng/mL); assay: as above; conditions: 72 h
[18] = tested on: normal primary NK cells, pool 3 (3 donors) (IL-2 2.5 ng/mL); assay: as above; conditions: 72 h
NK-YS (IL-2 2.5 ng/mL) [19] = assay: as above; conditions: 72 h
SNK-6 (IL-2 2.5 ng/mL) [20] = assay: as above; conditions: 72 h
IMC-1 (IL-2 20 ng/mL) [21] = assay: as above; conditions: 72 h
KHYG-1 (IL-2 2.5 ng/mL) [22] = assay: as above; conditions: 72 h
[23] = tested on: normal primary NK cells, pool 1 (3 donors) (IL-2 2.5 ng/mL); assay: as above; conditions: 72 h
NKL (IL-2 2.5 ng/mL) [24] = assay: as above; conditions: 72 h
DERL-7 (IL-2 2.5 ng/mL) [25] = assay: as above; conditions: 72 h
YT (IL-2 2.5 ng/mL) [26] = assay: as above; conditions: 72 h
KAI3 (IL-2 2.5 ng/mL) [27] = assay: as above; conditions: 72 h
[28] = tested on: normal NK cells expanded with K562-aAPC; assay: as above; conditions: 72 h, IL-2 2.5 ng/mL
Description: as §1

COc1cc2c(cc1O)CC[C@@H]1[C@@H]2CC[C@]2(C)[C@@H](O)CC[C@@H]12 [2-methoxyestradiol] (max concentration tested 10000 nM)
Conditions | drug sensitivity score
DERL-7 (IL-2 2.5 ng/mL) [12] | 14.2
IMC-1 (IL-2 20 ng/mL) [8] | 12.8
KAI3 (IL-2 2.5 ng/mL) [14] | 9.37
KHYG-1 (IL-2 2.5 ng/mL) [9] | 17.6
NK-92 (IL-2 2.5 ng/mL) [2] | 21.1
NK-YS (IL-2 2.5 ng/mL) [6] | 15
NKL (IL-2 2.5 ng/mL) [11] | 17.5
SNK-6 (IL-2 2.5 ng/mL) [7] | 14
YT (IL-2 2.5 ng/mL) [13] | 15.9
[1] | 4.38
[3] | 1.87
[4] | 0.33
[5] | 0
[10] | 1.6

percent inhibition of viability [%]
Conditions | 1 nM | 10 nM | 100 nM | 1000 nM | 10000 nM
DERL-7 (IL-2 2.5 ng/mL) [25] | -1.82 | 1.54 | 2.89 | 73.2 | 98.9
IMC-1 (IL-2 20 ng/mL) [21] | -3.9 | 0.72 | -4.99 | 63.4 | 98.5
KAI3 (IL-2 2.5 ng/mL) [27] | -6.2 | -3.7 | 1.79 | 50 | 57.4
KHYG-1 (IL-2 2.5 ng/mL) [22] | -6.84 | -2.25 | -0.37 | 97.8 | 97.9
NK-92 (IL-2 2.5 ng/mL) [15] | -11.8 | -5.92 | 24.8 | 96.2 | 92.4
NK-YS (IL-2 2.5 ng/mL) [19] | -6.42 | -2.65 | 5.43 | 77.6 | 66
NKL (IL-2 2.5 ng/mL) [24] | -3.96 | -6.41 | 12.5 | 85.8 | 90.6
SNK-6 (IL-2 2.5 ng/mL) [20] | 15.9 | 5.08 | 4.83 | 72.8 | 66.2
YT (IL-2 2.5 ng/mL) [26] | -5.93 | 2.82 | 1.11 | 86.5 | 92.7
[16] | -17.5 | -7.16 | 17.8 | 3.53 | 29.8
[17] | -5.21 | -10.5 | -5.24 | 0.1 | 16.3
[18] | -10.4 | -14 | -8.74 | -10.1 | 2.72
[23] | -5.08 | 0.22 | -0.63 | 10 | 19.8
[28] | -7.6 | -11.6 | -10.8 | 9.36 | 53

COc1cc(Nc2ncc3c(n2)-c2ccc(Cl)cc2C(c2c(F)cccc2OC)=NC3)ccc1C(=O)O [Alisertib] (max concentration tested 10000 nM)
Conditions | drug sensitivity score
DERL-7 (IL-2 2.5 ng/mL) [12] | 23.4
IMC-1 (IL-2 20 ng/mL) [8] | 19.8
KAI3 (IL-2 2.5 ng/mL) [14] | 16
KHYG-1 (IL-2 2.5 ng/mL) [9] | 24.4
NK-92 (IL-2 2.5 ng/mL) [2] | 21.1
NK-YS (IL-2 2.5 ng/mL) [6] | 24.5
NKL (IL-2 2.5 ng/mL) [11] | 17.9
SNK-6 (IL-2 2.5 ng/mL) [7] | 24.9
YT (IL-2 2.5 ng/mL) [13] | 13.6
[1] | 16.4
[3] | 5.81
[4] | 1.95
[5] | 1.41
[10] | 0

percent inhibition of viability [%]
Conditions | 1 nM | 10 nM | 100 nM | 1000 nM | 10000 nM
DERL-7 (IL-2 2.5 ng/mL) [25] | 3.14 | 3.32 | 73.9 | 65.1 | 72.8
IMC-1 (IL-2 20 ng/mL) [21] | -9.95 | 3 | 42.5 | 76.7 | 88
KAI3 (IL-2 2.5 ng/mL) [27] | -7.42 | 6.5 | 38.4 | 56.8 | 73
KHYG-1 (IL-2 2.5 ng/mL) [22] | -6.82 | 13.3 | 62.3 | 82.9 | 90.3
NK-92 (IL-2 2.5 ng/mL) [15] | -1.61 | 21.5 | 53.4 | 63.6 | 77.1
NK-YS (IL-2 2.5 ng/mL) [19] | -8.82 | 18.6 | 67.4 | 75.4 | 71.3
NKL (IL-2 2.5 ng/mL) [24] | -15.7 | -12.7 | 54.1 | 31.1 | 62.9
SNK-6 (IL-2 2.5 ng/mL) [20] | -9.82 | 4.71 | 73.7 | 81.3 | 84.4
YT (IL-2 2.5 ng/mL) [26] | -1.37 | 10.7 | 43.4 | 32.9 | 60.8
[16] | 4.36 | 18.6 | 7.69 | 21.1 | 47.6
[17] | -1.45 | -4.51 | 12.5 | 7.67 | 29.6
[18] | 4.24 | -4.25 | 17.1 | 4.71 | 23
[23] | -6.59 | 4.27 | 6.91 | 0.99 | 12.4
[28] | -8.29 | -10.5 | 39 | 46 | 63.8

CCn1c(-c2nonc2N)nc2cnc(Oc3cccc(NC(=O)c4ccc(OCCN5CCOCC5)cc4)c3)cc21 (max concentration tested 10000 nM)
Conditions | drug sensitivity score
DERL-7 (IL-2 2.5 ng/mL) [12] | 18.2
IMC-1 (IL-2 20 ng/mL) [8] | 2.4
KAI3 (IL-2 2.5 ng/mL) [14] | 9.52
KHYG-1 (IL-2 2.5 ng/mL) [9] | 6.96
NK-92 (IL-2 2.5 ng/mL) [2] | 12.4
NK-YS (IL-2 2.5 ng/mL) [6] | 12.6
NKL (IL-2 2.5 ng/mL) [11] | 5.93
SNK-6 (IL-2 2.5 ng/mL) [7] | 19.4
YT (IL-2 2.5 ng/mL) [13] | 2.8
[1] | 3.71
[3] | 4.87
[4] | 4.86
[5] | 5.91
[10] | 6.54

percent inhibition of viability [%]
Conditions | 1 nM | 10 nM | 100 nM | 1000 nM | 10000 nM
DERL-7 (IL-2 2.5 ng/mL) [25] | 1.35 | 15.3 | 42.9 | 62.8 | 72.7
IMC-1 (IL-2 20 ng/mL) [21] | -0.83 | -2.25 | 6.95 | 14.1 | 26.8
KAI3 (IL-2 2.5 ng/mL) [27] | -3.04 | -8.72 | 11.1 | 37.2 | 95
KHYG-1 (IL-2 2.5 ng/mL) [22] | 1.19 | 3.45 | 16.6 | 24.8 | 68.2
NK-92 (IL-2 2.5 ng/mL) [15] | -3.47 | 11.4 | 34.4 | 37.1 | 74
NK-YS (IL-2 2.5 ng/mL) [19] | -0.26 | -0.53 | 30.8 | 48.4 | 41.9
NKL (IL-2 2.5 ng/mL) [24] | -13.6 | -19.1 | -8.42 | 24 | 52.5
SNK-6 (IL-2 2.5 ng/mL) [20] | -9.46 | 8.6 | 49.6 | 70.1 | 55.5
YT (IL-2 2.5 ng/mL) [26] | 1.84 | -0.78 | 1.36 | 15.7 | 28.5
[16] | -4.42 | -15.8 | 7.47 | 11.9 | 54.7
[17] | -8.71 | -2.3 | 9.01 | 9.21 | 60.8
[18] | -9.45 | -1.75 | 4.61 | 14.9 | 64.5
[23] | -7.22 | 2.09 | 6.8 | 18.7 | 70
[28] | 7.28 | -0.78 | -0.39 | 9.1 | 43.7
